According to PMC5470052, “Brain Activation by H1 Antihistamines Challenges Conventional View of Their Mechanism of Action in Motion Sickness: A Behavioral, c-Fos and Physiological Study in Suncus murinus (House Musk Shrew)” (Frontiers in Physiology, 2017):

Tested on: T1, histamine H1 receptor
T1 construct: gene HRH1; native receptor in isolated ileal segments
Experiment: organ bath, antagonism of histamine-induced contraction of isolated ileum; double reciprocal analysis
Set-up: species or system Suncus murinus

How did the Kb turn out when `O=C(O)COCCN1CCN(C(c2ccccc2)c2ccc(Cl)cc2)CC1` (stereo not shown) [cetirizine] was run?
Its Kb is 8.4 pKb.
